From ChEMBL document CHEMBL3865811, “Synthesis and biological activities of d-chiro-inositol analogues with insulin-like actions” (2016) come the findings set out here.

Assay [1] deals with 3T3-L1. Kind of assay: Induction of 2-deoxy-D-[2,6-3H]glucose uptake in differentiated mouse 3T3L1 cells at 200 uM after 60 mins by liquid scintillation counting relative to basal uptake. It counts as functional.
Assay [2] deals with 3T3-L1. Kind of assay: Induction of 2-deoxy-D-[2,6-3H]glucose uptake in differentiated mouse 3T3L1 cells at 200 uM after 60 mins by liquid scintillation counting relative to insulin. It counts as functional.

`O[C@H]1[C@H](O)[C@H](O)[C@@H](O)[C@H](O)[C@H]1O`: the “fold change (FC)” value with 3T3-L1 [1] is 1.4 - 2.8. Moreover, the Activity with 3T3-L1 [2] is listed as 64%.

Consider `OC1[C@@H](O)[C@H](O)C[C@@H](O)[C@@H]1O` (stereo partly specified), for which the “fold change (FC)” value in the assay with 3T3-L1 [1] is 0.5. Moreover, the Activity with 3T3-L1 [2] is -106%.

Turning to `CCCC(=O)O[C@H]1[C@H](O)[C@@H](O)[C@@H](O)[C@H](O)[C@@H]1O`, in the assay on 3T3-L1 [1], the “fold change (FC)” value is 1.3. Also, the Activity in the assay with 3T3-L1 [2] stood at 19%.

Consider `CCCCO[C@H]1[C@@H](O)[C@H](O)[C@H](O)[C@@H](O)[C@@H]1O`, for which the “fold change (FC)” value in the assay on 3T3-L1 [1] was 1.4. The Activity with 3T3-L1 [2] was 22%.

With `CCCCO[C@H]1[C@H](O)[C@H](O)[C@@H](O)[C@H](O)[C@H]1O`, the “fold change (FC)” value in the assay with 3T3-L1 [1] is on record as 1.4 - 1.5. For the same molecule, the Activity with 3T3-L1 [2] is reported as 8%.

Regarding `O[C@@H]1[C@@H](O)[C@@H](O)C[C@H](O)[C@H]1O`, the “fold change (FC)” value in the assay with 3T3-L1 [1] is recorded as 1.3. Also, the Activity with 3T3-L1 [2] is reported as 22%.

In the case of `O[C@H]1[C@H](O)[C@@H](O)[C@H](O)[C@H](O)[C@H]1O`, the “fold change (FC)” value in the assay with 3T3-L1 [1] is recorded as 1.5 - 3. For the same molecule, the Activity in the assay with 3T3-L1 [2] turned out to be 43%.

On to `O[C@H]1[C@H](O)[C@H](O)C[C@H](O)[C@H]1O`, for which, in the assay with 3T3-L1 [1], the “fold change (FC)” value is recorded as 1.3. In the assay with 3T3-L1 [2], the Activity is 40%.
